Measurements taken from US9492470B2, “Use of HMGA-targeted phosphorothioate DNA aptamers to suppress carcinogenic activity and increase sensitivity to chemotherapy agents in human cancer cells” (MIAMI UNIVERSITY, priority 2012, dated 2016).
In the oligonucleotide strings, read from the 5' end, every base follows the letter of its sugar. An asterisk marks phosphorothioate; unmarked linkages are phosphodiester. Other units and linkages are bracketed, terminal groups are in braces. A string of capitals states the bases alone. d = 2'-deoxy (DNA)

What was measured:
[1] = biological target: T1, HMGA1 (Homo sapiens, UniProt P17096); assay: Electrophoretic mobility shift assay (EMSA), HMGA1 competitive binding against ATf10 DNA; settings: for formation of HMGA/ATf10 DNA complex in presence of competitor DNA: equal amounts of ATf10 and CG10 or Mix10, ATf10 DNA:HMGA1 1:1
T1 construct: The cDNA for full length HMGA1b was cloned into pET-30b; made in house; host or cells: Escherichia coli BL21 (DE3)
T1 sequence (P17096 1-96 isoform P17096-2): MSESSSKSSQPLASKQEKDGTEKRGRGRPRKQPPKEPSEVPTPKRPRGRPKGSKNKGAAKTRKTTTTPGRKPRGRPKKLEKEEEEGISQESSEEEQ
Procedure: The cDNA for full length HMGA1b was cloned into pET-30b and overexpressed in Eschericia coli (E. Coli) BL21 (DE3). E. coli expressing HMGA1b was cultured at 37° C. to an OD600 measurement of 0.8 to 1.0 OD600. Protein expression was induced by the addition of 1 mM IPTG and shaking at 37° C. for 4-6 hours. HMGA1 was purified by trichloroacetic acid precipitation as described in R. Reeves, HMGA proteins: isolation, biochemical modifications, and nucleosome interactions. Methods in enzymology 375 (2004) 297-322, the disclosure of which is incorporated herein by reference. Overexpressed HMGA1b was further purified with a Sephadex G-25 column in H2O and lyophilized using a standard freezedrying procedure. The samples were resolublized in a 25 mM Tris-HCl (pH 6.5), 50 mM NaCl buffer for analysis.
The following 28-mer oligonucleotides were purchased from Integrated DNA Technologies (Coralville, Iowa, USA): ATf10 5′-(56FAM)-[…]-3′ (SEQ ID NO: 4), and ATs10 5′-GGGT*T*T*T*T*T*T*T*T*T*[…]-3′ (SEQ ID NO: 5) (the “*” indicates the location of phosphorothioate linkage). ATf10 contained a fluorescence tag to serve as a marker for later analysis. […] AT10f was annealed with its complementary strand without a fluorescence tag, and ATs10 was annealed with a strand with no sulfur substitution. […]
The HMGA protein samples were prepared in 25 mM Tris-HCl (pH 6.5), 50 mM NaCl, and the concentrations determined based on UV […] absorbance (ε=38,200 mol-1 cm-1). […] The DNA was detected at 495 nm using the VersaDoc™ Imaging System Model 3000 from BIO-RAD Laboratories, Inc. of Hercules, Calif. […]
In order to determine if HMGA1 DNA binding activity was affected by sulfur substitution in the DNA phosphodiester backbone, fluorescence labeled DNA (ATf10 DNA) was used in competitive binding assays against various sulfur substituted DNAs where different ratios of ATf10 DNA and ATs10 DNA were added to a constant amount of purified HMGA1 (FIG. 1A). […]
Since ATs10 DNA has no fluorescence label, no signal could be detected when only ATs10DNA was added to HMGA1 (FIG. 1A, lane 9). […]

[2] = cited from earlier work

Compound | formation of HMGA/ATf10 DNA complex in presence of competitor DNA [1] | further results
Mix10: negative control DNA, random sequence of A, T, C, G with no AT-stretch (SEQ ID NO: 7) (DNA GGGCGTGACTGAGCGCGGCGGCCCCGCG; DNA, all phosphodiester, methylation of C not given here) | still observed | –
NC(=O)OC[C@H]1c2c(O)cc(C=O)cc2N2CC3N[C@@H]3[C@]1(O)O2 (stereo partly shown) [FR900482] | – | toxicity in humans [2]: high toxicity
ATs10: 28-mer oligonucleotide with phosphorothioate linkages in the T tract (SEQ ID NO: 5) (DNA dGdGdGdT*dT*dT*dT*dT*dT*dT*dT*dT*dT*dCdGdCdGdGdCdGdGdCdCdCdCdGdCdG; annealed with complementary strand) | – | ATf10 DNA detected in the unshifted position ([1]; 1:1 ratio of ATf10 DNA to ATs10 DNA, ATf10 DNA to HMGA1 1:1.5 (FIG. 1A, lane 4)): approximately half
CG10: negative control DNA containing only a mixture of C and G (SEQ ID NO: 6) (DNA GGGCCCCCCCCCCCGCGGCGGCCCCGCG; DNA, all phosphodiester, methylation of C not given here) | still observed | –
